US12448388B2, “PRMT5 inhibitors and uses thereof” (Gilead Sciences, Inc., priority 2023, dated 2025)

Test system: HCT116 MTAP-deleted cell lines
Assay: Cell viability assay (CellTiter-Glo, 7 days), HCT116 MTAP-deleted
Type: cell-based
Conditions: Homo sapiens, HCT-116; cell viability assay, HCT116 MTAP-deleted; class symbols; read-out: CC50
Summary of the method: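 Luminescent ATP readout (CellTiter-Glo) after 7 days of continuous compound exposure gives the CC50 value. Cells were plated onto pre-dispensed DMSO dilution series of the PRMT5 inhibitors and kept at 37 °C in 5% CO2.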

`CN(C(=O)c1cc2c(cc1C#N)nc(N)c1cncn12)[C@@H]1COc2cc(C(F)(F)F)ccc21` [Ff-490, (S)-4-amino-7-cyano-N-methyl-N-(6-(trifluoromethyl)-2,3-dihydrobenzofuran-3-yl)imidazo[1,5-a]quinoxaline-8-carboxamide] was tested. Which CC50 did it give?
Its CC50 is < 100 nM.

Which CC50 does the source give for `Cc1ncn2c1c(N)nc1cc(Cl)c(C(=O)N(C)[C@@H]3COc4cc(C(F)(F)F)ccc43)cc12` [Ff-492, (S)-4-amino-7-chloro-N,3-dimethyl-N-(6-(trifluoromethyl)-2,3-dihydrobenzofuran-3-yl)imidazo[1,5-a]quinoxaline-8-carboxamide] here?
Its CC50 is < 100 nM.

How did the CC50 turn out when `[2H]C([2H])([2H])c1ncn2c1c(N)nc1cc(F)c(C(=O)N(C)[C@@H]3COc4cc(C(F)(F)F)ccc43)cc12` [Ff-497, (S)-4-amino-7-fluoro-N-methyl-3-(methyl-d3)-N-(6-(trifluoromethyl)-2,3-dihydrobenzofuran-3-yl)imidazo[1,5-a]quinoxaline-8-carboxamide] was run?
The CC50 was < 100 nM.

How did the CC50 turn out when `Cc1ncn2c1c(N)nc1cnc(C(=O)N3C[C@H](C)O[C@@H]4Cc5cc(C(F)(F)F)ccc5[C@@H]43)cc12` [Ff-498, (4-amino-3-methylimidazo[1,5-a]pyrido[3,4-e]pyrazin-8-yl)((2S,4aS,9aR)-2-methyl-7-(trifluoromethyl)-2,3,9,9a-tetrahydroindeno[2,1-b][1,4]oxazin-4(4aH)-yl)methanone] was run?
The CC50 was < 100 nM.

For `C[C@@H]1C[C@@H]2Oc3cc(OC(F)(F)F)ccc3[C@@H]2N(C(=O)c2cc3c(cc2F)nc(N)c2cncn23)C1` [Ff-500, (4-amino-7-fluoroimidazo[1,5-a]quinoxalin-8-yl)((3R,4aS,9bS)-3-methyl-7-(trifluoromethoxy)-3,4,4a,9b-tetrahydrobenzofuro[3,2-b]pyridin-1(2H)-yl)methanone], which CC50 is on record?
Its CC50 is < 100 nM.

`CN(C(=O)c1cc2c(cc1F)nc(N)c1cncn12)[C@@H]1COc2cc(C(F)(F)F)c(F)cc21` [Ff-503, (S)-4-amino-7-fluoro-N-(5-fluoro-6-(trifluoromethyl)-2,3-dihydrobenzofuran-3-yl)-N-methylimidazo[1,5-a]quinoxaline-8-carboxamide] was tested. Which CC50 did it give?
Its CC50 is < 100 nM.

`C#Cc1ccc2c(c1)OC[C@H]2N(C)C(=O)c1cc2c(cc1F)nc(N)c1cncn12` [Ff-506, (S)-4-amino-N-(6-ethynyl-2,3-dihydrobenzofuran-3-yl)-7-fluoro-N-methylimidazo[1,5-a]quinoxaline-8-carboxamide] was tested. Which CC50 did it give?
Its CC50 is < 100 nM.

`C[C@@H]1C[C@@H]2Oc3cc(OC(F)(F)F)ccc3[C@@H]2N(C(=O)c2cc3c(cn2)nc(N)c2cncn23)C1` [Ff-507, (4-aminoimidazo[1,5-a]pyrido[3,4-e]pyrazin-8-yl)((3R,4aS,9bS)-3-methyl-7-(trifluoromethoxy)-3,4,4a,9b-tetrahydrobenzofuro[3,2-b]pyridin-1(2H)-yl)methanone] was tested. Which CC50 did it give?
The CC50 was < 100 nM.

How did the CC50 turn out when `CN(C(=O)c1cc2c(cc1Cl)nc(N)c1cncn12)[C@@H]1COc2cc(C(C)(F)F)ccc21` [Ff-508, (S)-4-amino-7-chloro-N-(6-(1,1-difluoroethyl)-2,3-dihydrobenzofuran-3-yl)-N-methylimidazo[1,5-a]quinoxaline-8-carboxamide] was run?
Its CC50 is < 100 nM.

Which CC50 does the source give for `Cc1ncc2c(N)nc3cnc(C(=O)N(C)[C@@H]4COc5cc(C(F)(F)F)ccc54)cc3n12` [Ff-509, (S)-4-amino-N,1-dimethyl-N-(6-(trifluoromethyl)-2,3-dihydrobenzofuran-3-yl)imidazo[1,5-a]pyrido[3,4-e]pyrazine-8-carboxamide] here?
The CC50 was < 100 nM.

For `Nc1nc2ccc(C(=O)N3CC[C@H]4C[C@@H]3c3ccc(C(F)(F)F)cc3O4)cc2n2cncc12` [Ff-510, (4-aminoimidazo[1,5-a]quinoxalin-8-yl)((2S,6R)-9-(trifluoromethyl)-3,4-dihydro-2H-2,6-methanobenzo[b][1,5]oxazocin-5(6H)-yl)methanone], which CC50 is on record?
The CC50 was < 100 nM.
